According to patent US20210130401A1, “PEPTIDOMIMETIC INHIBITORS OF THE WDR5-MLL INTERACTION” (THE REGENTS OF THE UNIVERSITY OF MICHIGAN, priority 2017, published 2021):
Like-named read-outs stand apart in the source and are kept apart here. Values belong to the molecule of their own block, whether it stands above or below them. Starred links: 1 amine or outer side, 2 acyl side, 3 side chain; linkers in the order of their positions; H or OH if unused. Positions of bridges follow the written chain, without caps; N, C: chain ends. Non-standard residues stand in square brackets, D forms with d. Residues, ends and D or L forms follow the SMILES beside them. *: point of attachment. dαMeLys(Me) = CN(CCCC[C@@](C)(N[*:1])C(=O)[*:2])[*:3]; dαMeDab = C[C@](CCN[*:3])(N[*:1])C(=O)[*:2]; Arg(Me2s) = CN=C(NC)NCCC[C@H](N)C(=O)O; dPhg(4-F) = N[C@@H](C(=O)O)c1ccc(F)cc1; Arg(Me) = CNC(=N)NCCC[C@H](N)C(=O)O; d(αMeOrn) = C[C@@](N)(CCCN)C(=O)O; d(αMeK) = C[C@@](N)(CCCCN)C(=O)O; dPhg = N[C@@H](C(=O)O)c1ccccc1; Phg = N[C@H](C(=O)O)c1ccccc1; αMeK = C[C@](N)(CCCCN)C(=O)O; Isobutyryl = CC(C)C(=O)*; dAbu = CC[C@@H](N)C(=O)O; Abu = CC[C@H](N)C(=O)O

How the values were obtained:
[1] = test system: MOLM-13 leukemia cells carrying MLL-AF9 fusion; experiment: cell viability assay (WST-8), MOLM-13; type: cell-based; details: Homo sapiens, MOLM-13, 96 h, read-out: Cell Growth Inhibition IC50 (μM) MOLM-13
[2] = test system: HL-60 leukemia cells carrying no MLL fusion; experiment: cell viability assay (WST-8), HL-60; type: cell-based; details: Homo sapiens, HL-60, 96 h, read-out: Cell Growth Inhibition IC50 (μM) HL-60
Experimental: Cell viability was determined using the WST-8 cell proliferation assay kit (Dojindo Molecular Technologies) according to manufacturer's instructions. Three independent experiments in triplicates were performed.

[3] = test system: MV4;11 leukemia cells carrying MLL-AF4 fusion; experiment: cell viability assay (WST-8), MV4;11; type: cell-based; details: Homo sapiens, MV4-11, 96 h, read-out: Cell Growth Inhibition IC50 (μM) MV-4-11
Experimental: To assess cell viability, MOLM-13 leukemia cells carrying MLL-AF9 fusion, MV4;11 leukemia cells carrying MLL-AF4 fusion or HL-60 leukemia cells carrying no MLL fusion were seeded 1×10^4 cell/well in 96-well plates and treated with an inhibitor for 4 days at different concentrations, in culture media containing 0.2% DMSO as the final concentration. Cell viability was determined using the WST-8 cell proliferation assay kit (Dojindo Molecular Technologies) according to manufacturer's instructions. Three independent experiments in triplicates were performed.

[4] = target: T1, WDR5 (Homo sapiens, UniProt P61964); experiment: fluorescence polarization (FP) based competitive binding assay to WDR5 protein
T1 construct: N-terminal His-tagged WDR5 protein (residues 24-334), named WDR5Δ23; made in house; host or cells: E. coli Rosetta 2 (DE3)
Experimental: The plates were incubated at room temperature on a shaker for 3h, and then the mP values were measured using the Tecan Infinite M-1000 plate reader (Tecan U.S., Research Triangle Park, N.C.).

[5] = calculated from IC50 by published equation, read-out: Binding Affinity to WDR5 Ki ± SD
[6] = read-out: Binding Affinity to WDR5 IC50 ± SD
[7] = amide bond, 14-membered ring, HATU/DIEA, DMF, with chain assembly

IC50 ([1]; 4 days treatment): 0.28 ± 0.02 µM | IC50 ([2]; 4 days treatment): 17.4 µM | IC50 ([3]; 4 days treatment): 0.46 ± 0.02 µM | Ki [4, 5]: < 1 nM | IC50 [4, 6]: 1.08 ± 0.12 nM
Molecule: CC[C@@H]1NC(=O)[C@H](CCCNC(=N)N)NC(=O)[C@](C)(NC(=O)C(C)C)CCNC(=O)[C@@H](c2ccccc2)NC1=O [Cpd. No. 4, N-((3R,6S,9S,12R)-6-ethyl-9-(3-guanidinopropyl)-12-methyl-2,5,8,11-tetraoxo-3-phenyl-1,4,7,10-tetraazacyclotetradecan-12-yl)isobutyramide] (Isobutyryl-[dαMeDab]R[Abu][dPhg]; lactam 1-C)

Molecule: CC[C@@H]1NC(=O)[C@H](CCCNC(=N)N)NC(=O)[C@](C)(NC(=O)C(C)C)CCCCN(C)C(=O)[C@@H](c2ccc(F)cc2)NC1=O [Cpd. No. 66, N-((3R,6S,9S,12R)-6-ethyl-3-(4-fluorophenyl)-9-(3-guanidinopropyl)-1,12-dimethyl-2,5,8,11-tetraoxo-1,4,7,10-tetraazacyclohexadecan-12-yl)isobutyramide] (Isobutyryl-[dαMeLys(Me)]R[Abu][dPhg(4-F)]; lactam 1-C)
IC50 [1]: 16.2 ± 6.1 µM | IC50 [2]: 60 ± 19.7 µM | IC50 [3]: 5.2 ± 1.1 µM | IC50 [4]: 1.6 ± 1 nM | Ki [4]: < 1 nM

Molecule: CC[C@H]1NC(=O)[C@@H](CCCNC(=N)N)NC(=O)[C@@](C)(NC(=O)C(C)C)CCCCNC(=O)[C@H](c2ccccc2)NC1=O [Cpd. No. 70, N-((3S,6R,9R,12S)-6-ethyl-9-(3-guanidinopropyl)-12-methyl-2,5,8,11-tetraoxo-3-phenyl-1,4,7,10-tetraazacyclohexadecan-12-yl)isobutyramide] (Isobutyryl-[αMeK][dR][dAbu][Phg]; lactam 1-C)
IC50 [1]: > 100 µM | IC50 [2]: > 100 µM | IC50 [3]: > 100 µM

Molecule: CC[C@@H]1NC(=O)[C@H](CCCNC(=N)NC)NC(=O)[C@](C)(NC(=O)C(C)C)CCCCNC(=O)[C@@H](c2ccccc2)NC1=O [Cpd. No. 68, N-((3R,6S,9S,12R)-6-ethyl-12-methyl-9-(3-(3-methylguanidino)propyl)-2,5,8,11-tetraoxo-3-phenyl-1,4,7,10-tetraazacyclohexadecan-12-yl)isobutyramide] (Isobutyryl-[d(αMeK)][Arg(Me)][Abu][dPhg]; lactam 1-C)
IC50 [1]: 3.6 ± 0.8 µM | IC50 [2]: > 100 µM | IC50 [3]: 4.3 ± 1.5 µM | IC50 [4]: 1.1 ± 0.3 nM | Ki [4]: < 1 nM

IC50 ([1]; 4 days treatment): 14.3 ± 0.9 µM | IC50 ([3]; 4 days treatment): 35 ± 4.4 µM | Ki [4, 5]: < 1 nM | IC50 [4, 6]: 2 ± 0.1 nM
Molecule: CC[C@@H]1NC(=O)[C@H](CCCNC(=N)NC)NC(=O)[C@](C)(NC(=O)C(C)C)CCNC(=O)[C@H](c2ccccc2)NC1=O [Cpd. No. 62, N-((3S,6S,9S,12R)-6-ethyl-12-methyl-9-(3-(3-methylguanidino)propyl)-2,5,8,11-tetraoxo-3-phenyl-1,4,7,10-tetraazacyclotetradecan-12-yl)isobutyramide] (Isobutyryl-[dαMeDab][Arg(Me)][Abu][Phg]; lactam 1-C)

Molecule: CC[C@@H]1NC(=O)[C@H](CCCNC(=N)N)NC(=O)[C@](C)(NC(=O)C(C)C)CCCCNC(=O)[C@@H](c2ccccc2)NC1=O [Cpd. No. 64, N-((3R,6S,9S,12R)-6-ethyl-9-(3-guanidinopropyl)-12-methyl-2,5,8,11-tetraoxo-3-phenyl-1,4,7,10-tetraazacyclohexadecan-12-yl)isobutyramide] (Isobutyryl-[d(αMeK)]R[Abu][dPhg]; lactam 1-C)
IC50 [2]: > 100 µM

IC50 ([1]; 4 days treatment): 1.28 ± 0.01 µM | IC50 ([2]; 4 days treatment): 46.8 µM | IC50 ([3]; 4 days treatment): 1.29 µM | Ki [4, 5]: < 1 nM | IC50 [4, 6]: 0.97 ± 0.13 nM
Molecule: CC[C@@H]1NC(=O)[C@H](CCCNC(=N)N)NC(=O)[C@](C)(NC(=O)C(C)C)CCCNC(=O)[C@@H](c2ccccc2)NC1=O [Cpd. No. 74, N-((3R,6S,9S,12R)-6-ethyl-9-(3-guanidinopropyl)-12-methyl-2,5,8,11-tetraoxo-3-phenyl-1,4,7,10-tetraazacyclopentadecan-12-yl)isobutyramide] (Isobutyryl-[d(αMeOrn)]R[Abu][dPhg]; lactam 1-C)

Molecule: CC[C@@H]1NC(=O)[C@H](CCCNC(=N)NS(=O)(=O)c2c(C)c(C)c3c(c2C)CC(C)(C)O3)NC(=O)[C@](C)(NC(=O)C(C)C)CC=CCN(C)C(=O)[C@@H](c2ccc(F)cc2)NC1=O
ring closure, yield after HPLC (from (R)—N-((6S,9S,12R)-9-ethyl-12-(4-fluorophenyl)-1-imino-14-methyl-7,10,13-trioxo-1-(2,2,4,6,7-pentamethyl-2,3-dihydrobenzofuran-5-sulfonamido)-2,8,11,14-tetraazaheptadec-16-en-6-yl)-2-isobutyramido-2-methylpent-4-enamide, rcm bond, 16-membered ring, Hoveyda-Grubbs II (0.5+0.5 eq), CH2Cl2, 45.0 °C, 3 steps): 11%

Molecule: N-((3R,6S,9S,12R)-6-ethyl-9-(3-guanidinopropyl)-12-methyl-2,5,8,11-tetraoxo-3-phenyl-1,4,7,10-tetraazacyclopentadecan-12-yl)isobutyramide
ring closure, yield after HPLC (amide bond, 15-membered ring, HATU/DIEA, DMF, with chain assembly): 19.4%

Molecule: N-((3R,6S,9S,12R)-6-ethyl-9-(3-guanidinopropyl)-2,5,8,11-tetraoxo-3-phenyl-1,4,7,10-tetraazacyclotetradecan-12-yl)isobutyramide
ring closure, yield after HPLC [7]: 21.7%

Molecule: N-((3R,6S,9S,12R)-6-ethyl-12-methyl-9-(3-(3-methylguanidino)propyl)-2,5,8,11-tetraoxo-3-phenyl-1,4,7,10-tetraazacyclotetradecan-12-yl)isobutyramide
ring closure, yield after HPLC [7]: 15.4%

Molecule: CC[C@@H]1NC(=O)[C@H](CCCNC(=N)NS(=O)(=O)c2c(C)c(C)c3c(c2C)CC(C)(C)O3)NC(=O)[C@](C)(NC(=O)C(C)C)CC=CCCNC(=O)[C@@H](c2ccccc2)NC1=O
ring closure, yield after HPLC (from iPrCO-(R)-αMe-allylGly-Arg(Pbf)-Abu-dPhg-NH-(but-3-enyl)?, rcm bond, 17-membered ring, Hoveyda-Grubbs II (0.5 eq), CH2Cl2, 25.0 °C, 3 steps): 28%

Molecule: CC[C@@H]1NC(=O)[C@H](CCCN/C(=N/C)NC)NC(=O)[C@](C)(NC(=O)C(C)C)CCCCNC(=O)[C@@H](c2ccccc2)NC1=O [Cpd. No. 69, N-((3R,6S,9S,12R)-9-(3-((E)-2,3-dimethylguanidino)propyl)-6-ethyl-12-methyl-2,5,8,11-tetraoxo-3-phenyl-1,4,7,10-tetraazacyclohexadecan-12-yl)isobutyramide] (Isobutyryl-[d(αMeK)][Arg(Me2s)][Abu][dPhg]; lactam 1-C)
IC50 [1]: 31.5 ± 9.8 µM | IC50 [2]: 84.8 ± 13.2 µM | IC50 [3]: 15.2 ± 2.9 µM | IC50 [4]: 2.4 ± 0.7 nM | Ki [4]: < 1 nM

IC50 ([1]; 4 days treatment): 37.6 ± 12.1 µM | IC50 ([2]; 4 days treatment): > 100 µM | IC50 ([3]; 4 days treatment): 15.1 ± 11.8 µM | Ki [4, 5]: < 1 nM | IC50 [4, 6]: 2.6 ± 0.2 nM
Molecule: CC[C@@H]1NC(=O)[C@H](CCCNC(=N)N)NC(=O)[C@](C)(NC(=O)C(C)C)CCCCCNC(=O)[C@@H](c2ccccc2)NC1=O [Cpd. No. 75, N-((3R,6S,9S,12R)-6-ethyl-9-(3-guanidinopropyl)-12-methyl-2,5,8,11-tetraoxo-3-phenyl-1,4,7,10-tetraazacycloheptadecan-12-yl)isobutyramide]

Molecule: N-((3R,6S,12R)-9-(3-amino-3-oxopropyl)-6-ethyl-12-methyl-2,5,8,11-tetraoxo-3-phenyl-1,4,7,10-tetraazacyclotetradecan-12-yl)isobutyramide
ring closure, yield after HPLC [7]: 17%

Molecule: N-((3R,6S,9S,12R)-6-ethyl-12-methyl-2,5,8,11-tetraoxo-3-phenyl-9-(3-ureidopropyl)-1,4,7,10-tetraazacyclotetradecan-12-yl)isobutyramide
ring closure, yield after HPLC [7]: 6%

Molecule: N-((3S,6S,9S,12R)-6-ethyl-12-methyl-9-(3-(3-methylguanidino)propyl)-2,5,8,11-tetraoxo-3-phenyl-1,4,7,10-tetraazacyclotetradecan-12-yl)isobutyramide
ring closure, yield after HPLC [7]: 7%

Molecule: CC[C@@H]1NC(=O)[C@H](CCCNC(=N)NS(=O)(=O)c2c(C)c(C)c3c(c2C)CC(C)(C)O3)NC(=O)[C@](C)(NC(=O)C(C)C)CC=CCCCCCNC(=O)[C@@H](c2ccccc2)NC1=O
ring closure, yield after HPLC (from iPrCO-(R)-αMe-allylGly-Arg(Pbf)-Abu-dPhg-NH-(hept-6-enyl)?, rcm bond, 20-membered ring, Hoveyda-Grubbs II (0.5 eq), CH2Cl2, 25.0 °C, 3 steps): 27%
